Data taken from patent US5650173A, “Preparation of biodegradable microparticles containing a biologically active agent” (Alkermes Controlled Therapeutics Inc. II, priority 1996, dated 1997).
“Also recorded” adds a separate entry of the source.

Experiments:
[1] = Solubility of risperidone in receiving medium for in vitro dissolution; conditions: 50 mm tris buffer, pH 7.4, aqueous buffer
From the text: Real time and accelerated methodologies were used. The equipment consisted of a Hanson research 6-cell USP paddle (Method II) dissolution apparatus interfaced with a spectrophotometer and data station. Receiving media were continuously recirculated from each cell to flow cells inside the spectrophotometer. The absorbance of the receiving media was monitored at 236 nm for quantification of risperidone.
The real time model measured the release rates of microparticles into a receiving medium consisting of 50 mM tris buffer at pH 7.4 at 37° C. […] The amount of risperidone was kept below 20% of saturation to provide infinite sink conditions.

[2] = In Vitro Dissolution of norethindrone (NET) microparticles; format: physicochemical; conditions: ethyl acetate alone as solvent; b93: extreme ethyl acetate contents in quench; quench volume varied

Cc1nc2n(c(=O)c1CCN1CCC(c3noc4cc(F)ccc34)CC1)CCCC2 [Risperidone, risperidone]
solubility [1]: ≥ 500 µg/mL

C#C[C@]1(O)CC[C@H]2[C@@H]3CCC4=CC(=O)CC[C@@H]4[C@H]3CC[C@@]21C [NET, norethindrone]
in vitro release rate from microparticles [2]: Higher than normal release rates; also recorded: quicker release; also recorded: varies slightly
